In brackets after ≈: the same amount, converted by molar mass. Activity calls are given as the source filed them. The rule behind the calls is not given here.
Experiments:
[1] = system: Porcine rotavirus; test: Antiviral activity against KJ56-1 Porcine rotavirus G5P[7] infected in african green monkey TF-104 cells assessed as inhibition of viral mRNA synthesis at 40 to 50 uM after 18 hrs by RT-PCR analysis; format: functional, cell-based
[2] = system: Porcine rotavirus; test: Antiviral activity against KJ56-1 Porcine rotavirus G5P[7] infected in african green monkey TF-104 cells assessed as inhibition of virus-induced cytopathic effect after 72 hrs; format: functional, cell-based; conditions: TF-104, 72 h
[3] = system: Bovine rotavirus; test: Antiviral activity against KJ56-1 Bovine rotavirus G8P[7] in human RBC assessed as inhibition of virus-induced hemagglutinination after 1 hr; format: functional; conditions: Rotavirus A
[4] = system: Bovine rotavirus; test: Antiviral activity against KJ56-1 Bovine rotavirus G8P[7] infected in african green monkey TF-104 cells assessed as inhibition of viral mRNA synthesis at 40 to 50 uM after 18 hrs by RT-PCR analysis; format: functional, cell-based
[5] = Selectivity index, ratio of CC50 for african green monkey TF-104 cells to EC50 for cytopathic inhibition activity against KJ56-1 Bovine rotavirus G8P[7]; format: toxicity, cell-based; conditions: read-out: Ratio CC50/EC50
[6] = system: Porcine rotavirus; test: Antiviral activity against KJ56-1 Porcine rotavirus G5P[7] infected in african green monkey TF-104 cells after 72 hrs by virucidal assay; format: functional, cell-based; conditions: Rotavirus A, TF-104, 72 h
[7] = Cytotoxicity against african green monkey TF-104 cells after 72 hrs by MTT assay; format: cell-based; conditions: chlorocebus aethiops
[8] = Selectivity index, ratio of CC50 for african green monkey TF-104 cells to EC50 for cytopathic inhibition activity against KJ56-1 Povine rotavirus […]; format: toxicity, cell-based; conditions: read-out: Ratio CC50/EC50
[9] = system: Porcine rotavirus; test: Antiviral activity against KJ56-1 Porcine rotavirus G5P[7] in human RBC assessed as inhibition of virus-induced hemagglutinination after 1 hr; format: functional
[10] = system: Bovine rotavirus; test: Antiviral activity against KJ56-1 Bovine rotavirus G8P[7] infected in african green monkey TF-104 cells assessed as inhibition of virus-induced cytopathic effect after 72 hrs; format: functional, cell-based; conditions: Rotavirus A, TF-104, 72 h
[11] = system: Porcine rotavirus; test: Antiviral activity against KJ56-1 Porcine rotavirus G5P[7] infected in african green monkey TF-104 cells assessed as inhibition of viral replication at 30 uM after 24 hrs by immunofluorescence assay; format: functional, cell-based
[12] = Selectivity index, ratio of CC50 for african green monkey TF-104 cells to EC50 for KJ56-1 Bovine rotavirus G8P[7] by virucidal assay; format: toxicity, cell-based; conditions: read-out: Ratio CC50/EC50
[13] = Selectivity index, ratio of CC50 for african green monkey TF-104 cells to EC50 for virucidal activity against KJ56-1 Povine rotavirus […]; format: toxicity, cell-based; conditions: read-out: Ratio CC50/EC50
[14] = system: Bovine rotavirus; test: Antiviral activity against KJ56-1 Bovine rotavirus G8P[7] infected in african green monkey TF-104 cells after 72 hrs by virucidal assay; format: functional, cell-based; conditions: Rotavirus A, TF-104, 72 h
[15] = system: Bovine rotavirus; test: Antiviral activity against KJ56-1 Bovine rotavirus G8P[7] infected in african green monkey TF-104 cells assessed as inhibition of viral replication at 30 uM after 24 hrs by immunofluorescence assay; format: functional, cell-based

Structure (SMILES) | inhibition [1] | EC50 [2] [µM] | MIC [3] [µM] | inhibition [4] | selectivity ratio [5] | EC50 [6] [µM] | CC50 at 72 h [7] [µM] | selectivity ratio [8] | MIC [9] | EC50 [10] [µM] | inhibition [11] | selectivity ratio [12] | selectivity ratio [13] | EC50 [14] [µM] | inhibition [15]
COc1cc(O)ccc1C(=O)/C=C/c1ccc(O)cc1 | Active | 24 | 17.2 (≈ 4.65 µg/mL) | Active | > 3.2 | 69.5 | > 133 | 5.6 | inactive | 41.8 | – | – | – | – | –
O=c1c(-c2ccc(O)cc2)coc2cc(O)cc(O)c12 [GENISTEIN] | – | – | – | – | 1.8 | – | 174 | – | – | 99.6 | – | – | – | – | –
COc1c(CC=C(C)C)c(O)cc2c1C[C@H](c1ccc(O)cc1O)CO2 [GLYASPERIN C] | Active | 12.1 | 17.2 (≈ 6.13 µg/mL) | Active | 3.6 | 18.7 | 42.8 | 3.6 | 17.2 µM (≈ 6.13 µg/mL) | 12 | Active | 2.9 | 2.3 | 14.7 | Active
COc1cc2c(c(OC)c1CC=C(C)C)C[C@H](c1ccc(O)cc1O)CO2 [GLYASPERIN D] | Active | – | 17.2 (≈ 6.37 µg/mL) | Active | 1.6 | – | 68.1 | – | 17.2 µM (≈ 6.37 µg/mL) | 42 | inactive | 5.7 | – | 17.6 | Active
COc1cc2oc(=O)c(-c3ccc(O)cc3O)cc2c(OC)c1CC=C(C)C [GLYCYRIN] | – | – | 17.2 (≈ 6.58 µg/mL) | – | – | – | > 133 | – | 17.2 µM (≈ 6.58 µg/mL) | > 100 | – | > 1.5 | – | 88.1 | –
COc1c(CC=C(C)C)c(O)cc2oc(-c3ccc(O)cc3O)cc12 [LICOCOUMARONE] | Active | 43.6 | 17.2 (≈ 5.85 µg/mL) | Active | 2.5 | 26.1 | 54.5 | 1.3 | 17.2 µM (≈ 5.85 µg/mL) | 22.3 | – | 1.4 | 2.1 | 37.8 | –
CC(C)=CCc1c(O)cc2oc(-c3ccc(O)cc3)c(O)c(=O)c2c1O [LICOFLAVONOL] | Active | – | 17.2 (≈ 6.09 µg/mL) | Active | 3.3 | 36.8 | 85.3 | – | 17.2 µM (≈ 6.09 µg/mL) | 25.9 | inactive | 5.5 | 2.3 | 15.5 | Active

— ChEMBL document CHEMBL1629463, “In vitro anti-rotavirus activity of polyphenol compounds isolated from the roots of Glycyrrhiza uralensis” (Bioorg Med Chem, 2010)
